Results taken from patent publication EP3829564B1, “CURCUMIN AND HOMOTAURINE FOR USE IN PREVENTING OR TREATING COGNITIVE DECLINE FORMS” (ALERE VITAM S.R.L., priority 2018, dated 2020).

Legend:
[1] = test system: heme oxygenase; test: Heme oxygenase activity in treated cells; assay type: cell-based; settings: same doses; 6 and 24 hours after administration
Method: (§1) To confirm that the expression of the HO-1 gene measured at the mRNA level corresponded to an equivalent increase in heme oxygenase activity, this activity was measured at the same doses of curcumin and homotaurine 6 and 24 hours after administration.

[2] = target: T1, Aβ42 peptide (Homo sapiens, UniProt P05067); test: Thioflavin-T assay for inhibition of Aβ 42 aggregation; assay type: biochemical
T1 construct: Beta-amyloid (Aβ 1-42) aggregation studies were conducted; purchased AnaSpec, Inc, Fremont, CA
Method: In the present study, the fluorescence spectroscopy with thioflavin T was used to examine the effects of curcumin (CUR), homotaurine (HOM) taken individually and a combination of the two compounds as disclosed herein on the formation of toxic Aβ aggregates.
Thioflavin-T (Th-T dosage), analysis for the inhibition of the Aβ 42 aggregation (also referred to AB42).
Beta-amyloid (Aβ 1-42) aggregation studies were conducted using the SensoLyte ThT Ab42 aggregation kit (AnaSpec, Inc, Fremont, CA).
The Aβ42 peptide was dissolved in a cold analysis buffer (4 °C) and allowed to hydrate for a few minutes. The solution was centrifuged at 10,000 rpm for 5 minutes at 4°C to centrifuge any precipitated material. The fibrillation reaction was initiated by adding thioflavin dye (ThT) at a concentration of 2 mmol/L.
Three test samples (CUR; HOM; CUR + HOM) were added in a volume of 5 µL and the reaction was started by adding the Aβ42 peptide solution. The final volume of the test samples was 100 µL. At the same time, the positive control and the negative control containing nordihydroguaiaretic acid (NDGA), a well-defined inhibitor of Ab aggregation, at the final concentration of 100 µmol/L were established. Fluorescence intensity was measured at 37°C with Ex/Em ¼ 440 nm/484 nm and by shaking of 15s between readings using the microplate reader (Synergy H1; BioTek, Winooski, VT). The fluorescence intensity measurements expressed as relative fluorescence units (RFU) were taken for 90 minutes at 5-minute intervals.

[3] = test system: HO-1; settings: 6 hours; for increase in HO-1 mRNA: 5, 10, 15 and 30 µM, cortical neurons, astrocytes and endothelial cells; for concentration of maximum HO-1 mRNA: tested 5, 10, 15 and 30 µM
Method: as §1

[4] = test system: Nrf2; test: Nrf2 protein expression in nuclear extracts (Western blot); assay type: cell-based, rat; settings: 25 µM; for expression of the Nrf2 protein in nuclear extracts: cortical neurons, astrocytes and endothelial cells, over time, three independent Western blots
Method: Three different cell lines, cortical neurons, astrocytes and endothelial cells, were exposed to curcumin, homotaurine or a combination of the two compounds at the final concentration of 25 µM to evaluate the expression of the Nrf2 protein over time.
The rat hippocampal neurons (H 19-7) were purchased by the American Type Culture Collection (Manassas, VA, USA) and cultured according to the manufacturer's instructions.
The neurons were washed twice with 1X PBS. The cells were then collected in 1 ml of 1X PBS and centrifuged at 3000 rpm for 3 min at 4°C. The cell pellet was carefully resuspended in […] of cold buffer containing HEPES 10 mM (pH 7.9), KCI 10 mM, EDTA 0.1 mM, EGTA 0.1 mM, DTT 1 µM and complete protease inhibitor cocktail (Roche, Mannheim, Germany).
The pellet was then incubated on ice for 15 minutes to allow the cells to swell. After this time, 15 µl of 10% of NP-40 were added and the tube was vortexed for 10 s. The homogenate was then centrifuged at 3000 rpm for 3 min at 4°C and the nuclear pellet was resuspended in 30 µl of cold buffer consisting of HEPES 20 mM (pH 7.9), NaCl 0,4 M, EDTA 1 mM, EGTA 1 mM, DTT 1 µM and protease inhibitors. The pellet was then incubated on ice for 15 minutes and vortexed for 10-15 s every 2 minutes. The nuclear extract was finally centrifuged at 13,000 rpm for 5 minutes at 4°C. The supernatant containing the nuclear proteins was resolved with SDS-polyacrylamide gel and subjected to immunoblot analysis using anti-Nrf2 antibodies (dilution 1: 500) and anti-Sp1 (dilution 1: 500).

[5] = test system: HO-1; test: cells; settings: 6 h, read-out: maximum increase in HO-1 mRNA, relative to the non-inducible paralogue HO-2 gene
Method: as §1

[6] = target: Aβ40 (Homo sapiens, UniProt P05067); settings: compared with ibuprofen and naproxen; cited from earlier work
[7] = test system: transgenic Alzheimer's mouse (Tg2576); settings: dietary regime containing curcumin for 6 months; cited from earlier work
[8] = target: T2, Aβ42 oligomer (Homo sapiens, UniProt P05067); settings: prior art statement; cited from earlier work
T2 construct: prevents the formation and the toxicity of Aβ42 oligomer

[9] = fibrillation time 30 min and 90 min, vs control

T1 sequence (P05067 672-713 limits assumed): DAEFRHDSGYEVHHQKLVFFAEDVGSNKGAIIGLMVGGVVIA
Sequence of Aβ40 (P05067 672-711): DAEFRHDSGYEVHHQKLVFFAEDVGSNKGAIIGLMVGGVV
T2 sequence (P05067 672-713): as the sequence (P05067 672-713 limits assumed) above

SMILES | heme oxygenase activity [1] | Aβ aggregation (ThT fluorescence) [2, 9] | increase in HO-1 mRNA [3] | concentration of maximum HO-1 mRNA [3] [µM] | expression of the Nrf2 protein in nuclear extracts [4] | Aβ aggregation (ThT fluorescence) ([2]; 100 µmol/L, control inhibitor) | maximal fold induction at 15 µM [5] | Aβ40 aggregation inhibition [6] | cognitive deficits induced by Aβ amyloid [7] | indices of oxidative damage and inflammation in the brain [7] | time Nrf2 expression remained upregulated ([4]; after treatment) | concentration preventing formation and toxicity of Aβ42 oligomer [8] [µM]
NCCCS(=O)(=O)O [homotaurine, 3-amino-1-propanesulfonic acid] | comparable to the results obtained by looking at cellular mRNAs | significantly influence the fibrillation reaction | much less active in inducing the expression of the HO-1 gene | 15 | lower increase in nuclear Nrf2 |  |  |  |  |  |  | 
CC(Cc1ccc(O)c(O)c1)C(C)Cc1ccc(O)c(O)c1 (centres unmarked) [NDGA, nordihydroguaiaretic acid] |  |  |  |  |  | inhibitor of the Aβ aggregation (p <.001) |  |  |  |  |  | 
COc1cc(C=CC(=O)CC(=O)C=Cc2ccc(O)c(OC)c2)ccc1O [curcumin, 1,7-bis [4-Hydroxy-3-methoxyphenyl]-1,6-heptadiene-3,5-dione] | comparable to the results obtained by looking at cellular mRNAs | significantly influence the fibrillation reaction | dosedependent increase in HO-1 mRNA | 15 | significant timedependent increase |  | ~6 | better than ibuprofen and naproxen | reverses the cognitive deficits induced by Aβ amyloid | suppression of the indices of the oxidative damage and the inflammation in the brain | up to 12 hours | 0.1 to 11.0
